“Also recorded” adds a separate entry of the source.
Legend:
[1] = test system: above-mentioned bacterial strains; test: Spot assays on bacterial lawns and direct kill assays of synthetic peptides; type: cell-based
Experimental: The fractions were dried and reconstituted in water and spotted onto Tryptic soy agar plates that were spread with 100 μL of select bacterial grown overnight in tryptic soy broth.
We have named them HBCA1 and HBCA2.
(§1) All three peptides were tested using direct kills assays. Equal inoculums of indicated bacterial pathogens were incubated either with water (−) or 50 mg/ml of HBCA1, HBCA2 or HBCA2.C. Aliquots were spotted at T=0 min (start of incubation) and at 30 minutes post incubation (T=30 min) on LB-agar plates, and incubated at 37° C. overnight to see growth.

Porphyromonas gingivalis = test: Kill assay on TSA plates (5% difibrinated blood); type: cell-based
Text: Porphyromonas gingivalis (a keystone pathogen in chronic periodontitis, and identified in the brains of Alzheimer's patients) is sensitive to HBCA1 and HBCA2 peptides.

[2] = test system: commensal Bifidobacterium strains; test: Activity against commensal strains; type: cell-based; details: strains commonly found in infant and adult gut
[3] = test system: commensal Lactobacillus strains; test: Activity against commensal strains; type: cell-based; details: strains commonly found in infant and adult gut
S. enteritidis = test: Killing of pathogenic bacteria; type: cell-based
Experimental: as §1

L. monocytogenes = test: Killing of pathogenic bacteria; type: cell-based
Experimental: as §1

S. aureus (MRSA) = test: Killing of pathogenic bacteria; type: cell-based
Experimental: as §1

E. faecalis = test: Killing of pathogenic bacteria; type: cell-based
Experimental: as §1

E. coli (EHEC) = test: Killing of pathogenic bacteria; type: cell-based
Experimental: as §1

K. pneunomiae = test: Killing of pathogenic bacteria; type: cell-based, K. pneumoniae
Experimental: as §1

G. vaginalis = test: Direct kill assay on HBT bilayer Gardnerella media; type: cell-based, Gardnerella vaginalis
Experimental: When we subjected G. vaginalis to direct kill assays using HBCA1 and HBCA2, we observed that both peptides render G. vaginalis non-viable within 30 minutes, as indicated by loss of bacterial growth on HBT bilayer Gardnerella media (FIG. 9).

P. aeruginosa = test: Direct kill assay; type: cell-based
Experimental: as §1

[4] = test system: indicated bacterial pathogens; test: Direct kill assay; type: cell-based; details: 50 mg/ml
Experimental: as §1

K. pneumoniae = test: Activity on TSA plates (FIG. 16); type: cell-based; details: 20 mg/ml and 10 mg/ml on TSA plates
Experimental: FIG. 16 depicts activity of HBCA2 peptide against K. pneumoniae at 20 mg/ml and 10 mg/ml on TSA plates.

Row | Sequence | antibacterial activity [1] | sensitivity of P. gingivalis (Porphyromonas gingivalis) | activity against commensal Bifidobacterium strains [2] | activity against commensal Lactobacillus strains [3] | killing of S. enteritidis (S. enteritidis) | killing of L. monocytogenes (L. monocytogenes) | killing of S. aureus (MRSA) (S. aureus (MRSA)) | killing of E. faecalis (E. faecalis) | killing of E. coli (EHEC) (E. coli (EHEC)) | killing / viability of K. pneumoniae (K. pneunomiae) | killing of Gardnerella vaginalis (G. vaginalis) | killing of Porphyromonas gingivalis (Porphyromonas gingivalis) | speed of loss of viability of P. gingivalis (Porphyromonas gingivalis; upon mixing cells with peptide) | killing of P. aeruginosa (P. aeruginosa) | loss of viability of P. aeruginosa (P. aeruginosa; 50 mg/ml, T=0 min) | relative activity of the peptides in direct kill assays [4] | relative potency against K. pneumoniae (K. pneumoniae)
1 | TVYTKGRVMPVLKSPTIPFFDPQI (listed as Homo sapiens) [HBCA1] | showed antibacterial activity | sensitive |  |  |  |  |  |  |  |  |  |  |  |  |  |  | 
2 | RVMPVLKSPTIP (listed as Homo sapiens) [HBCA2] | showed antibacterial activity | sensitive | no detected activity | no detected activity | kills | kills | kills | kills | kills | kills | kills | kills | rapid killing; also recorded: rapidly lose viability right at 0 minutes | kills | rapidly lost (while mixing at T0) | more potent in its activity than the larger HBCA1 peptide | 
3 | RVRPKLKSPRIP [HBCA2.4] |  |  |  |  |  |  |  |  |  |  |  |  |  |  |  |  | most potent of the HBCA peptides
